# Source: article PMC6754133 (PLoS ONE, 2019)
# Like-named read-outs stand apart in the source and are kept apart here.
# Assays:
# Hh/SMO pathway = experiment: Gli-Luciferase functional assay, NIH 3T3 Gli-RE cells stimulated with ShhN; format: cell-based
# Description: After 24 hours, when the cells reached confluency, the culture medium was replaced with 80 μL per well of assay medium [Optimem ± 10 mM HEPES ± 1 mM Sodium Pyruvate + 1× MEM NEAA]. […] Then the cells were stimulated by addition of either ShhN-conditioned media or control media (DMEM±10%BCS) at a final concentration of 10%. Following incubation of the plate for at least 28 hours at 37°C, the cells were simultaneously lysed and supplemented with a luciferase substrate by addition of equal volume of Steady-Glo reagent (Promega, E2520) directly to the assay media. Plates were mixed by pipetting, centrifuged to eliminate foam, incubated for 10 minutes, and analyzed using Perkin Elmer Viktor X luminescence plate reader. The results were analyzed using a non-linear regression (Prism 6, GraphPad Software, La Jolla, CA). Data were normalized to the maximal response observed for ShhN-stimulated cells in the same experiment. A sigmoidal-dose response curve was used as a model for data analysis and IC50 value calculation.
# MB-PDX cells [1] = experiment: Neurosphere formation assay; format: cell-based, human; conditions: Homo sapiens, 168 h, read-out: Inhibition of NS formation, wells
# Description: The final concentration of test compounds in the wells was 10 μM. Cells were incubated at 37 °C for at least seven days. After incubation percent of wells positive with neural stem cell-derived sphere colonies were calculated for each test condition and compared.
# [2] = tested on: nuclear Gli-1 in DAOY cells; experiment: Western blot quantitation of nuclear Gli-1; format: cell-based, human; conditions: NS conditions, 24-hour treatment, 5 μM (Fig 6f, S4 Fig)
# Description: (§1) Nuclear fractions were prepared from cell pellets according to the method of Schreiber et. al.[81] with minor modifications. […] After 24 hours, cells were lifted from the wells by pipetting, transferred to 1.5 mL Eppendorf tubes, centrifuged at 10,000 x g for 1 minutes at 4°C, and washed once in PBS. Following supernatant removal by vacuum, cells were lysed using a plasma membrane lysis buffer [10 mM HEPES; pH 7.5, 10 mM KCl, 0.1 mM EDTA, 1 mM dithiothreitol (DTT), 0.5% Nonidet P‐40 and 0.5 mM PMSF along with 1× protease inhibitor cocktail (Sigma)] and allowed to swell on ice for 15‐20 min with intermittent mixing. Next, tubes were vortexed to disrupt cell membranes and then centrifuged at 12,000 × g at 4°C for 10 min. […] The pelleted nuclei were washed with the plasma membrane lysis buffer and re-suspended in the nuclear extraction buffer [20 mM HEPES (pH 7.5), 400 mM NaCl, 1 mM EDTA, 1 mM DTT, 1 mM PMSF with 1× protease inhibitor cocktail] and incubated on ice for 30 min. The tubes were centrifuged at 12,000 ×g for 25 min at 4°C and the supernatant (now containing the soluble fraction of the cell nuclei) was collected. Total protein concentrations were determined using the Bio-Rad Protein Assay (Bio-Rad, Hercules, CA). Nuclear extracts containing the total of 40 μg protein were separated on a 10% Tris-SDS PAGE gel (Bio-Rad Mini-PROTEAN® TGX). Gels were transferred on nitrocellulose membranes using Bio-Rad TransBlot system, after which the membranes were blocked in the blocking buffer [5% nonfat dry milk in 1× Tris Buffer Saline + 0.1% Tween 20 (TBST)] for 2 hours at room temperature. Following blocking, the membranes were washed four times with TBST (5 minutes gentle rocking per wash) and incubated overnight with primary antibody Rabbit anti-Gli-1 (Cell signaling, #C68H3); 1:250 dilution in TBST-Milk at 4°C with gentle rocking. Membranes were washed three times with TBST for 5 min each.
# [3] = tested on: nuclear Gli-1 in MB-PDX cells; experiment: Western blot quantitation of nuclear Gli-1; format: cell-based, human; conditions: NS conditions, 24-hour treatment, 5 μM (Fig 6f, S4 Fig)
# Description: as §1
# MB-PDX xenograft = experiment: Subcutaneous patient-derived medulloblastoma xenograft model, tumor volume; format: in vivo, mouse; conditions: NSG mice, 40 mg/kg daily intraperitoneally from day 7, 42 days
# Description: Tumor volumes were monitored three times a week in the course of treatment.
# NSG mice, 4–6 weeks old, were injected subcutaneously at shoulders and flanks with 1 × 10^6 viable MB-PDX cells in 1:1 HBSS and gelatinous protein mixture Matrigel. […] The tumor size was measured three times a week with a caliper, and tumor volumes were calculated according to the formula (length × width × width × 0.5). At day 42 post-grafting, all mice were euthanized by isoflurane inhalation and cervical dislocation.
# [4] = tested on: Gli-1 mRNA in Math1-Cre; ptch1-flox/flox cells; experiment: qRT-PCR of Gli-1 mRNA in Math1-Cre; ptch1-flox/flox (PTCH -/-) cells treated ex vivo; format: cell-based, mouse; conditions: 10 μM ex vivo, 24 hours
# Description: An in vivo medulloblastoma model was established as described before. Briefly, 6–7 weeks old NOD-scid IL-2Rg null (NSG) mice (the Jackson Laboratory) were anesthetized with xylazine-ketamine, and […]. Dissociated Math1-Cre; ptch1-flox/flox cells (1×10^6 cells in 4 μL HBSS)[58] were injected into the mouse brains using murine stereotaxic system (Stoelting Co). The coordinates were: 1.8mm to the right of bregma and 3mm deep from the dura. To disassociate the orthotopic tumor into the single cells for the serial implantation or the ex-vivo experiment, the tumor was dissected from the cerebellum, followed by digestion using Papain (10 U per mL), DNase (250 U) and L-cystein (2 mg) at 37°C for 30 min.
# Both post-vivo MB-PDX cells and Math1-Cre; ptch1-flox/flox cells were analyzed for Gli-1 mRNA expression. For that, total RNA was extracted from dissociated single cells using QIAGEN RNease Mini Kit and cDNA was prepared using 1μg RNA with iScript cDNA Synthesis Kit (Bio-Rad). SYBR green-based QPCR was performed using murine primers listed as below (GLI1, Forward 5’- […]-3’, Reverse 5’-[…]-3’, GAPDH Forward 5'-[…] -3', Reverse 5'-[…]-3'). mRNA levels were normalized to GAPDH (dCt = Ct gene of interest–Ct GAPDH) and reported as relative mRNA expression (ddCt = 2-^(dCt sample–dCt control)) in fold change.
# [5] = tested on: firefly luciferase under control of cAMP response element (CRE); experiment: CRE-luciferase counter assay in HEK293s cells; format: cell-based; conditions: different concentrations
# Description: (a) The drugs were tested at different concentrations in HEK293s cells stably transfected with firefly luciferase under control of cAMP response element (CRE) (pGL4.29[luc2P/CRE/Hygro], Promega). […] Raw, non-normalized luminescence values are presented, to facilitate the assessment of the extent of inhibition. Shown is a single representative experiment out of the multiple experiments performed on different days. (Mean ± SD)
# MB-PDX cells [6] = experiment: cells; conditions: Homo sapiens, 72 h, read-out: Cell viability assay IC50
# [7] = tested on: Mast/stem cell growth factor receptor Kit (KIT_HUMAN); parameters: method as in earlier work; conditions: S2/S3 Table; ref [1] Davis MI et al., Nat Biotechnol. 2011; cited from earlier work
# [8] = target: Mitogen-activated protein kinase MLT (MLTK_HUMAN); parameters: method as in earlier work; conditions: S3 Table; ref [1] Davis MI et al., Nat Biotechnol. 2011; cited from earlier work
# [9] = target: Abelson tyrosine-protein kinase 2 (ABL2_HUMAN); conditions: S2/S3 Table; ref [1] Davis MI et al., Nat Biotechnol. 2011; cited from earlier work
smiles,measurement,setting,value
Cc1cn(-c2cc(NC(=O)c3ccc(C)c(Nc4nccc(-c5cccnc5)n4)c3)cc(C(F)(F)F)c2)cn1 [Nilotinib],IC50,"Hh/SMO pathway; Mus musculus, NIH3T3, read-out: Hh/SMO pathway inhibition IC50, NIH3T3 Gli-RE cells, ShhN-conditioned media, n = 3",374 nM
same,Inhibition of ShhN-induced Hh signaling (in words),"Hh/SMO pathway; NIH 3T3 Gli-RE cells, ShhN stimulated",inhibited ShhN-induced Hh signaling in a dose-dependent manner
same,Span of concentration response curve,"Hh/SMO pathway; data as percent of the maximum luminescence in the absence of antagonists, Fig 4",95.05
same,IC50,"Hh/SMO pathway; read-out: Hh/SMO pathway inhibition IC50, NIH3T3 Gli-RE cells, ShhN-conditioned media, n = 3",374 nM
same,inhibition at 10 µM,MB-PDX cells [1],> 90%
same,"Nuclear Gli-1, mean, % of untreated samples",[2],46%
same,"Nuclear Gli-1, mean, % of untreated samples",[3],41%
same,Tumor volume versus vehicle-treated group,MB-PDX xenograft,significantly smaller tumors
same,Gli-1 mRNA expression versus vehicle treated cells,[4],significant reduction in Gli-1 mRNA expression
same,Effect on CRE-driven luciferase activity (independent of SMO),[5],lack of dose-dependent effect
same,IC50,MB-PDX cells [6],5000 nM
same,Kd/Ki Value,[7],29 nM
same,Kd/Ki Value,[8],11 nM
same,Kd/Ki Value,[9],26 nM
